Test results published in patent US20230117205A1, “B7-H4 ANTIBODY-DRUG CONJUGATES FOR THE TREATMENT OF CANCER” (SEAGEN INC., priority 2021, published 2023).

Tests used:
[1] = target: T1, hFcγRIIb (Homo sapiens, UniProt P31994); assay: BLI binding to human Fc receptors; conditions: low data quality
T1 construct: made in house
T1 sequence (P31994 43-310): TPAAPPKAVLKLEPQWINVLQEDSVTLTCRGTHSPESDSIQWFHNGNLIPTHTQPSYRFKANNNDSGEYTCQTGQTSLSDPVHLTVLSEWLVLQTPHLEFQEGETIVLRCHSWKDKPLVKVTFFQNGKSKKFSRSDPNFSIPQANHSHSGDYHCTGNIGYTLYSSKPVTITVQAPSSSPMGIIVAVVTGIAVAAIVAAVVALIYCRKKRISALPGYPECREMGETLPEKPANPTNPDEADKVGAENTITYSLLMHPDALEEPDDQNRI

[2] = Non-human primate (NHP) and rat tox study; assay type: in vivo, rat and cynomolgus monkey
Source text: The nonclinical safety profile of SGN-B7H4V supports the proposed initial clinical development plan. […] The hematologic toxicity is consistent with the mechanism of action (MOA) for MMAE.

[3] = system: MDA-MB-468 xenograft model; assay: MDA-MB-468 xenograft dose range, Study MDAMB468-9; assay type: in vivo, NSG mice; conditions: three weekly doses
Experimental: Tumor volume was measured twice weekly until study day 85.
Female NSG mice were implanted with 1×10^6MDA-MB-468 cells in 25% Matrigel H C (Corning #354248) subcutaneously. Once tumor volumes reached 100 mm^3, mice were randomized into treatment groups of 5 mice each and dosed with 0.3, 1, or 3 mg/kg every seven days for three total doses (q7dx3). Twenty-four hours prior to receiving each ADC dose, each animal was treated with 10 mg/kg hIVIG (Grifolds). Tumor volumes were measured twice per week, animals were euthanized when tumor volume reached 700-1000 mm^3. Stock concentrations of ADC were diluted to desired concentration (with 0.01% Tween20 in PBS) and injected i.p. into each treatment group.

[4] = system: F4/80+ macrophages in MDA-MB-468 xenograft tumors; assay: IHC for F4/80+ macrophages in MDA-MB-468 xenograft tumors; assay type: in vivo, NSG mice; conditions: single 3 mg/kg dose; 7 days after treatment
Experimental: Specifically, female NSG mice were implanted with 1×10^6 MDA-MB-468 cells in 25% Matrigel H C subcutaneously. Once tumor volumes reached ˜250-300 mm^3, mice were randomized into treatment groups of 6 mice each and treated with a single 3 mg/kg dose of ADC or mAb, or vehicle control (20 mM Histidine buffer, pH 6.0) injected intraperitoneally (i.p.). Stock concentrations of ADC were diluted to desired concentration with 20 mM Histidine buffer, pH 6.0 or and stock concentration of mAb were diluted to desired concentration with 0.01% Tween20 in PBS. Twenty-four hours prior to dosing, each animal was treated with 10 mg/kg hIVIG. One week following treatment, tumors were harvested, cut in half, and processed for RNAseq (frozen at −80° C.) or formalin-fixed and paraffin-embedded for immunohistochemical (IHC) analysis.
For IHC, FFPE blocks were sectioned at 4 μm and sections were placed on charged slides. Slides were baked for 1 hr at 60° C. […]
Scanned images were analyzed with Halo image analysis software v. 3.1.1076 (Indica Labs), using the area quantification algorithm for CD11c and F4/80 and the cytonuclear algorithm for all other antibodies. […] Percent area of positive tissue, tumor and stroma were determined. […]

Substance: SGN-B7H4V: ADC of fully human IgG1 anti-B7-H4 mAb conjugated to monomethyl auristatin E (MMAE) via a protease-cleavable valine-citrulline linker (vedotin)
- affinity [1]: weakest affinity
- primary target organs of toxicity ([2]; pivotal GLP and non-GLP studies): hematological system, testes, and ovaries
- tolerability ([2]; rat and cynomolgus monkey): tolerated in the rat and cynomolgus monkey
- anti-tumor activity (tumor volume) ([3]; 0.3 mg/kg): minimal anti-tumor activity
- anti-tumor activity (tumor volume) ([3]; 1 mg/kg): transient regression of tumor volumes in all mice
- anti-tumor activity (tumor volume) ([3]; 3 mg/kg): transient regression of tumor volumes in all mice
- proportion of F4/80+ macrophages in tumor nest and stroma [4]: increase in the proportion of F4/80+ macrophages
